Values quoted from earlier work as cited in patent US10463613B2, “Cromolyn compositions for treatment of chronic cough due to idiopathic pulmonary fibrosis” (Respivant Sciences GmbH, priority 2016, dated 2019).
Read-outs that look alike come from different tables or passages of the source.

Conditions: in vivo

Bioavailability of available formulations: approximately 1%
Oral bioavailability: ~1%
Oral bioavailability (listed as cromolyn): about 1%
Compound: O=C([O-])c1cc(=O)c2c(OCC(O)COc3cccc4oc(C(=O)O)cc(=O)c34)cccc2o1.[Na+] [cromolyn sodium, disodium 5,5′-(2-hydroxypropane-1,3-diyl)bis(oxy)bis(4-oxo-4H-chromene-2-carboxylate)]
